# Test results published in article PMC5260423 (Journal of Veterinary Internal Medicine, 2016).
# Tests used:
# Pseudomonas aeruginosa = assay type: in vivo, dog
# [1] = assay type: in vivo, dog; settings: 7 days, AST 24 hours after last dose
# [2] = assay type: in vivo, dog
# tubulin = assay type: cell-based, dog
# [3] = assay type: in vivo, dog; settings: 15 mg/kg PO q12 h for 2 weeks
# [4] = assay type: in vivo, dog; settings: mean ± SD; 18 of 20 dogs; single 1 mg/kg oral aspirin; LC‐MS
# platelet function [5] = assay type: in vivo, dog
# platelet function [6] = assay type: in vivo, dog; settings: Day 7
# platelet function [7] = assay type: in vivo, dog; settings: day 7; HM5 analyzer
# platelet aggregation = assay type: in vivo, dog; settings: 1 mg/kg orally; 20, 40 and 180 minutes
# platelet function [8] = assay type: in vivo, dog; settings: day 7
# platelet function [9] = assay type: in vivo, dog; settings: day 7; remark: listed apart in the source
# [10] = not given; remark: listed apart in the source
# [11] = system: Anaplasma phagocytophilum; assay type: in vivo, dog
# [12] = biological target: Angiotensin converting enzyme (ACE) (Canis lupus familiaris, UniProt A0A8I3S3I6); assay type: in vivo, dog; settings: enalapril 0.5 mg/kg orally twice a day, 14–21 days
# Sequence of Angiotensin converting enzyme (ACE) (A0A8I3S3I6 31-1241 limits assumed): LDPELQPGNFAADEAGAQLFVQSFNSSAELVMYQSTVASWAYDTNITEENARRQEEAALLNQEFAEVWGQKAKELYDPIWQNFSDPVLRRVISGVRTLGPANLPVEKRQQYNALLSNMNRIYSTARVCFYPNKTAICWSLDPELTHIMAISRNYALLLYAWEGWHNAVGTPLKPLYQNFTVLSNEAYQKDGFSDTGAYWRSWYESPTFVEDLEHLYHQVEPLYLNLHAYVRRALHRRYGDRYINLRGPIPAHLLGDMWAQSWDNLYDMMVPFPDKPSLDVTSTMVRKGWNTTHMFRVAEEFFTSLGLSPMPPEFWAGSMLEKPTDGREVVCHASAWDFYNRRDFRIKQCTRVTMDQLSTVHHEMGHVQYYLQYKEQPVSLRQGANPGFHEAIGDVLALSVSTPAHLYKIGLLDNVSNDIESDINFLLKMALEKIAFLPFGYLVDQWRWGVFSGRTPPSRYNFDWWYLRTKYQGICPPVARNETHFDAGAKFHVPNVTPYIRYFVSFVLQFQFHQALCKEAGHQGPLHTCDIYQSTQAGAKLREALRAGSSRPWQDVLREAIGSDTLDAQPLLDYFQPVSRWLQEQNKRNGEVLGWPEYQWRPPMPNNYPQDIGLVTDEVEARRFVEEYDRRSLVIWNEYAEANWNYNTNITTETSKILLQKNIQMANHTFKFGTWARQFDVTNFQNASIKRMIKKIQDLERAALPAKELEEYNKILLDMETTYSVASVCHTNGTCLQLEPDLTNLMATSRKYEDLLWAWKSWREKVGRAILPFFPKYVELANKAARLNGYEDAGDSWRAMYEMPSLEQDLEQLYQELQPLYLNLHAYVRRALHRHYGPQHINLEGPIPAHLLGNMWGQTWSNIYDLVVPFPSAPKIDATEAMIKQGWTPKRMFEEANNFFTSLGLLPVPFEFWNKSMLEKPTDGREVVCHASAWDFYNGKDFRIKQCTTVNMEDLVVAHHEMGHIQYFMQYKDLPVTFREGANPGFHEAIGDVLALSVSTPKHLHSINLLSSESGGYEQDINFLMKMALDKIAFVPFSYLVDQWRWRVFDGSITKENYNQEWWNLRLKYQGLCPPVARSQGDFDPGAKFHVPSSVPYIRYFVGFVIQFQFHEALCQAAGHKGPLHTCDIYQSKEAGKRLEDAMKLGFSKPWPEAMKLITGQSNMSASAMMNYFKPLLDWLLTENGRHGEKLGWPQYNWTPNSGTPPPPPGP
# [13] = assay type: in vivo, dog; remark: listed apart in the source
# [14] = system: hypothalamic‐pituitary‐thyroid axis; assay type: in vivo, dog; settings: mean dose 0.024 mg/kg every 24 hours for 8 or 16 weeks
# [15] = assay type: in vivo, dog; remark: listed apart in the source
# [16] = assay type: in vivo, cat
# [17] = assay type: in vivo, dog; remark: listed apart in the source
# [18] = not given; remark: listed apart in the source
# [19] = assay type: in vivo, dog; remark: listed apart in the source
# [20] = 8.5 mg/kg orally every 12 hours
molecule,measurement,setting,value
CC[C@H]1OC(=O)[C@H](C)[C@@H](O[C@H]2C[C@@](C)(OC)[C@@H](O)[C@H](C)O2)[C@H](C)[C@@H](O[C@@H]2O[C@H](C)C[C@H](N(C)C)[C@H]2O)[C@](C)(O)C[C@@H](C)CN(C)[C@H](C)[C@@H](O)[C@]1(C)O [Azithromycin],"concentration of BHL, HHL and OdDHL in ear canal samples","Pseudomonas aeruginosa; 1 mL of 50 µg/mL topical SID for 56 days, P ≥ 0.2",not affected
same,clinical signs and duration of the disease,Pseudomonas aeruginosa; P = 0.5,no effect
"CC(=O)OCC(=O)[C@@]1(O)CC[C@H]2[C@@H]3CCC4=CC(=O)CC[C@]4(C)[C@H]3C(=O)C[C@@]21C [CA, cortisone acetate]","mean (±SEM) post AST serum cortisol, 25 mg",[1],335 ± 13 nmol/L
same,"mean (±SEM) post AST serum cortisol, 37.5 mg",[1],326 ± 13 nmol/L
same,"mean (±SEM) post AST serum cortisol, 50 mg",[1],308 ± 13 nmol/L
same,"mean (±SEM) post AST serum cortisol, 12.5 mg","[1]; 14 dogs, placebo 365 ± 13",347 ± 13 nmol/L
"C[C@]12CCC(=O)C=C1CC[C@@H]1[C@@H]2[C@@H](O)C[C@@]2(C)[C@H]1CC[C@]2(O)C(=O)CO [Hydrocortisone, hydrocortisone]","serum adiponectin concentrations on days 1, 3, 7, 30, 60, and 90 versus day 0",[2]; [20],decreased
same,"serum leptin concentrations on days 1, 3, 7, 30, 60, and 90 versus day 0",[2]; [20],significantly increased
same,"abdominal visceral fat mass on days 30, 60, and 90 versus day 0","[2]; 8.5 mg/kg orally every 12 hours for 90 days, six dogs, CT",increased abdominal visceral fat mass
"COC(=O)Nc1nc2ccc(C(=O)c3ccccc3)cc2[nH]1 [MBZ, mebendazole]",tubulin depolymerization versus untreated control,tubulin,increased depolymerization of tubulin
"Cc1ncc([N+](=O)[O-])n1CCO [Metronidazole, metronidazole]","altered fecal metabolites, out of 469 measured",[3],98
same,fecal secondary bile acids,[3]; P < 0.001,reduction in secondary bile acids
"O=C(O)c1ccccc1O [SA, salicylic acid]",maximum plasma concentrations (Cmax),[4],21 ± 5 µM
"CC(=O)Oc1ccccc1C(=O)O [aspirin, acetylsalicylic acid]","mean decrease in maximum amplitude, Dose A","platelet function [5]; 0.5 mg/kg, q24 h PO, Day 7 versus Day 0",3.8%
same,"mean decrease in maximum amplitude, Dose B","platelet function [5]; 1 mg/kg, q24 h PO, Day 7",41.3%
same,"mean decrease in maximum amplitude, Dose C","platelet function [5]; 2 mg/kg, q24 h PO, Day 7",81.3%
same,"mean decrease in maximum amplitude, Dose D","platelet function [5]; 4 mg/kg, q24 h PO, Day 7",75.9%
same,"mean decrease in maximum amplitude, Dose E","platelet function [5]; 10 mg/kg, q12 h PO, Day 7",87.8%
same,"dogs with PFA‐100 closure time >300 seconds, Dose A","platelet function [6]; 0.5 mg/kg, q24 h",0%
same,"dogs with PFA‐100 closure time >300 seconds, Dose B","platelet function [6]; 1 mg/kg, q24 h",25%
same,"dogs with PFA‐100 closure time >300 seconds, Dose C","platelet function [6]; 2 mg/kg, q24 h",62.5%
same,"dogs with PFA‐100 closure time >300 seconds, Dose D","platelet function [6]; 4 mg/kg, q24 h",87.5%
same,"dogs with PFA‐100 closure time >300 seconds, Dose E","platelet function [6]; 10 mg/kg, q12 h",87.5%
same,"PW % aggregation with AA, post treatment mean",platelet function [7],7%
same,inhibition of platelet aggregation after single dose,platelet aggregation,did not cause measureable inhibition of platelet aggregation
same,maximum plasma concentrations (Cmax),[4],0.23 ± 0.21 µM
COC(=O)[C@H](c1ccccc1Cl)N1CCc2sccc2C1 [clopidogrel],"MP AUC with AA, post treatment mean",platelet function [8],19 U
same,"MP AUC with ADP, post treatment mean",platelet function [8],13 U
same,"PFA closure time, COL‐ADP cartridge, post treatment mean",platelet function [9],185 s
same,"PFA closure time, P2Y cartridge, post treatment mean",platelet function [9],> 300 s
same,"PW % aggregation with AA, post treatment mean",platelet function [7],4%
same,"PW % aggregation with ADP, post treatment mean",platelet function [7],9%
O=P1(N(CCCl)CCCl)NCCCO1 (stereo not drawn) [cyclophosphamide],dogs with stable disease or partial/complete remission >100 days,10 mg cyclophosphamide daily/every other day,74%
same,dogs that developed haematuria,"10 mg cyclophosphamide daily/every other day, three dogs",8.6%
same,dogs still alive over one year later,13 of 35 dogs,37%
same,dogs with DFI >6 months,20 of 35 dogs,57%
same,"median survival time (MST), intermediate/high grade sarcomas",n = 18,362 days
COc1cccc2c1C(=O)c1c(O)c3c(c(O)c1C2=O)C[C@@](O)(C(=O)CO)C[C@@H]3O[C@H]1C[C@H](N)[C@H](O)[C@H](C)O1 [doxorubicin],MTD of doxorubicin in the combination,"[10]; IV every 21 days with toceranib 2.75 mg/kg PO every other day, 21 dogs",25 mg/m2
same,dose limiting toxicity (DLT),"[10]; dog, in vivo",neutropenia
C[C@H]1c2cccc(O)c2C(=O)C2=C(O)[C@]3(O)C(=O)C(C(N)=O)=C(O)[C@@H](N(C)C)[C@@H]3[C@@H](O)[C@@H]21 [doxycycline],AP antibodies on Week 48 in Group 1,[11]; doxycycline 5 mg/kg PO twice daily for 4 weeks from Week 20,The only dogs that became AP seronegative by Week 48 were administered doxycycline
CCOC(=O)[C@H](CCc1ccccc1)N[C@@H](C)C(=O)N1CCC[C@H]1C(=O)O [enalapril],"median post therapy ACE activity, dogs homozygous for DNA variant",[12]; baseline 18.05 U/L,< 5.0 U/L
same,"median post therapy ACE activity, wildtype dogs",[12]; baseline 27.4 U/L,< 5.0 U/L
Cc1oncc1C(=O)Nc1ccc(C(F)(F)F)cc1 [leflunomide],increased liver enzyme activities,[13]; 1 of 16,6.3%
same,thrombocytopenia,[13]; 2 of 31,6.5%
same,lethargy,[13]; 2 of 92,2.2%
same,suspect blood dyscrasia,[13]; 3 of 92,3.3%
same,diarrhea,"[13]; 3 of 92, mean dose 1.79 ± 0.8 mg/kg/day",3.3%
same,discontinued due to possible adverse events,[13]; 6 dogs,6.5%
same,dogs with apparent positive response,"[13]; 12 of 17 dogs (IMPA, IMTP, CH)",70.5%
N[C@@H](Cc1cc(I)c(Oc2cc(I)c(O)c(I)c2)c(I)c1)C(=O)O [levothyroxine],mean serum TSH during administration compared to baseline,[14],significantly lower
same,mean serum T4 and fT4 during administration compared to baseline,[14]; 28 dogs,significantly higher
CCOc1cc(N)c(Cl)cc1C(=O)NCC1CN(Cc2ccc(F)cc2)CCO1 (stereo not drawn) [mosapride],"median increase of plasma motilin after feeding, Group N",[15]; feeding only 65.0,-1.6 pg/mL
same,"median increase of plasma motilin after feeding, Group S",[15]; feeding only 173.3,37.0 pg/mL
COc1ccc2[nH]c([S+]([O-])Cc3ncc(C)c(OC)c3C)nc2c1 (stereo not drawn) [omeprazole],serum gastrin in comparison to placebo,"[16]; 0.83–1.6 mg/kg PO q12 h for 60 days, 6 cats, P < 0.002",significantly higher
same,intragastric pH after cessation,[16]; two cats with intragastric pH capsules,Evidence of gastric hyperacidity
C[C@]12C=CC(=O)C=C1CC[C@@H]1[C@@H]2[C@@H](O)C[C@@]2(C)[C@H]1CC[C@]2(O)C(=O)CO [prednisolone],clinical abnormalities,[11]; prednisolone 2 mg/kg PO daily for 2 weeks from Week 24,Clinical abnormalities were not detected
Cc1[nH]c(/C=C2\C(=O)Nc3ccc(F)cc32)c(C)c1C(=O)NCCN1CCCC1 [toceranib phosphate],median time to development of proteinuria,[17]; dogs that developed proteinuria,47 days
same,median UPC in dogs that developed proteinuria,[17]; urine protein creatinine ratio,0.7
"C[C@]12CC[C@H]3[C@@H](CC[C@@]45O[C@@H]4C(O)=C(C#N)C[C@]35C)[C@@H]1CC[C@@H]2O [treatment A, trilostane]",dogs with complete hair regrowth,[18]; after three months of treatment (stated for treatment A),50%
same,dogs with partial regrowth,"[18]; dog, in vivo",37.5%
"COc1ccc2[nH]cc(CCNC(C)=O)c2c1 [treatment C, melatonin]",tolerability,[18]; one of the two dogs,had to be withdrawn due to emesis
cyanocobalamin [cbl],"median serum cbl after 28 days, PO","[19]; daily cyanocobalamin tablets ¼ to 1 mg by weight, n = 22, 245 at inclusion",970 ng/L
same,"mean increase in serum cbl at 28 days to baseline, PE","[19]; dog, in vivo",1465 ± 745 ng/L
same,"mean increase in serum cbl at 28 days to baseline, PO","[19]; dog, in vivo, po",888 ± 449 ng/L
same,"mean serum cbl after 3 months, PE",[19]; n = 13,803 ± 275 ng/L
same,"mean serum cbl after 28 days, PE","[19]; n = 19, 221 ± 43 at inclusion",1686 ± 757 ng/L
same,"median serum cbl after 3 months, PO",[19]; n = 20,1334 ng/L
same,"median increase in serum cbl after 3 months, PE",[19]; range 38–997,608 ng/L
same,"median increase in serum cbl after 3 months, PO",[19]; range 538–3663,970 ng/L
